The numbers were not newly measured in patent publication US20080004343A1, “Stable polymorphs of (E)-N,N-diethyl-2-cyano-3-(3,4-dihydroxy-5-nitrophenyl)acrylamide” (Wockhardt Limited, priority 2006, published 2008), which cites them from elsewhere.

For the compound `CCN(CC)C(=O)C(C#N)=Cc1cc(O)c(O)c([N+](=O)[O-])c1` [(Z)-isomer, N,N-diethyl-2-cyano-3-(3,4-dihydroxy-5-nitrophenyl)acrylamide], the “stability under the influence of heat or acids” value is on record as “unstable”.

`CCN(CC)C(=O)/C(C#N)=C/c1cc(O)c(O)c([N+](=O)[O-])c1` [polymorphic form B, (E)-N,N-diethyl-2-cyano-3-(3,4-dihydroxy-5-nitrophenyl)acrylamide]: the “stability under the influence of heat or acids” value is “unstable”. Where the note is “standing at room temperature”, the “isomerization to polymorphic form A on standing” value is on record as “isomerizes slowly to the polymorphic form A”.
